Test results published in patent US9079977B2, “Anti-trypanosomal peptides and uses thereof” (priority 2009, dated 2015).
Where a SMILES comes first, the peptide text is derived from it.

Legend:
[1] = not told
Description: Calcein release assays. […] Briefly, liposomes were diluted 1:1000 into 50 mM Tris, pH 7.0 and calcein fluorescence was monitored at 513 nm when excited at 484 nm. The percent calcein release was calculated relative to the 100% fluorescence intensity, achieved by the addition of 0.01% Triton X-100.

[2] = system: LNCaP prostate cancer cells; experiment: Mammalian cell viability assay (trypan blue exclusion), Example 2; assay type: cell-based, human; details: 80-160 μM, 2 h at 37° C.
Description: (§1) Mammalian cell viability and hemolysis assays. Human embryonic kidney cells (HEK) (ATCC CRL-1573) and LNCaP prostate cancer cells (ATCC CRL-1740) were utilized for cell viability assays. Human embryonic kidney cells were cultured in Dulbecco's Modified Eagles Medium, high glucose (Thermo Scientific, cat #SH30243.01) with 10% fetal bovine serum at 37° C. and 5% CO2. Prostate cancer cells were cultured in RPM-1640 medium (Invitrogen, cat #A10491-01) with 10% fetal bovine serum at 37° C. and 5% CO2. In both cases, assays were performed by aliquoting cells into 96 well plates at approximately 60% confluency and allowing the cells to adhere for two hours. Cells were then incubated with serial dilutions of SHP-1, or the relevant control, in the corresponding media for two hours at 37° C. Cell viability was determined by the ability of live cells to exclude trypan blue. The cells were incubated with 0.1% trypan blue for 10 minutes and examined microscopically for cytoplasmic staining. The potential for SHP-1 to induce hemolysis was assayed by monitoring hemoglobin (Hb) release from freshly collected human erythrocytes that had been washed and incubated with SHP-1 in PBS. The Hb concentration of the supernatant was determined by the absorbance at 412 nm and compared to 100% hemolysis acquired by hypotonic lysis. […]

[3] = system: Human embryonic kidney cells (HEK); experiment: as above; assay type: cell-based; details: 80-160 μM, 2 h at 37° C.
Description: as §1

[4] = system: BSF T. b. brucei; experiment: Trypanosome killing assay, Example 4; assay type: cell-based, Trypanosoma brucei brucei; details: two hour killing assay, 37° C.
Description: Trypanosome Killing Assays. Light microscopy based trypanosome killing assays were performed as previously described in detail (Harrington et al., 2010, J Biol Chem; 285(37):28659-66; Widener et al., 2007, PLoS Pathog; 3(9):1250-61; Shiflett et al., 2007, J Eukaryot Microbiol; 54(1):18-21; and Hajduk et al., 1989, J Biol Chem; 264(9):5210-7). Metacyclic T. b. brucei TREU 667 were obtained from dissection of the salivary glands of infected tsetse flies. Newly hatched Glossina morsitans morsitans (24-48 hours post eclosion) were fed defibrinated horse blood containing 2×10^6 ml^−1 trypanosomes and maintained at 25° C. in 75% relative humidity and fed maintenance blood meals three times per week. Following day 20-30, flies were harvested and salivary glands were dissected out and washed in HMI 9 media containing 10% fetal bovine serum. Metacyclic cells were collected via centrifugation and maintained in HMI 9 media with 10% fetal bovine serum at 37° C. in 5% CO2 until use. Killing assays were conducted with 1×10^4 cells/ml in HMI 9 media containing 10% fetal bovine serum. Trypanosoma vivax and T. congolense were grown from stabilites in donor ICR mouse (Harlan, United Kingdom). Parasites were harvested from mice by terminal exsanguination and passage of infected blood through a small anion exchange column. Cells were maintained in HMI 9 with 20% goat serum at 37° C. in 5% CO2 until use. Killing assays were performed with 1×10^7 cells/ml in HMI 9 media with either 20% goat serum, in the case of T. vivax and T congolense, and 10% fetal bovine serum, for T. b. brucei. Cells were incubated at 37° C. for 2 hours and dead parasites were scored visually. All were conducted in at least duplicate, and data points are the averages with standard deviations.

[5] = system: BSF T. b. brucei; experiment: Flow cytometry binding of FITC-labeled SHP; assay type: cell-based, Trypanosoma brucei brucei; details: 8 μM FITC-labeled peptide
Description: Flow Cytometry. Peptide binding to BSF T. b. brucei was monitored by flow cytometry. Binding assays were performed with 3×10^6 cells/ml in HMI 9 plus 10% fetal bovine serum at 25° C. FITC-labeled SHP-1 or SHP-3 was added to a final concentration of 8 μM and 50,000 cells were immediately counted on a CyAn ADP flow cytometer (Dako). Data were analyzed with FlowJo software (TreeStar Inc.).

[6] = system: BSF T. b. brucei; experiment: Trypanosome motility by video microscopy, Example 4; assay type: cell-based, Trypanosoma brucei brucei; details: 40 μM peptide, 37° C.
Description: Trypanosome motility. All images and videos were acquired with an Axio Observer Z1 equipped with an AxioCam MRm controlled by AxioVision 4.6 software. Videos were acquired with live cells at a density of 1×10^7 cells/ml in HMI 9 media with 10% fetal bovine serum, incubated with 40 µM SHP-1 at 37° C. Videos were recorded at magnification 63× with 50-ms acquisition times. The motility of BSF trypanosomes was scored visually from video playback of trypanosomes scanned throughout 10 μl aliquots. Data is shown as the average of triplicate trials with standard deviations.

[7] = system: plasma membrane of live BSF T. b. brucei; experiment: Anisotropy assays with DPH and TMA-DPH, Example 4; assay type: cell-based, Trypanosoma brucei brucei; details: 37° C.
Description: Anisotropy Assays. The plasma membrane rigidity of live T. b. brucei was determined by measuring the fluorescence depolarization of diphenyl-1,3,5-hexatriene p-toluenesulfonate (DPH) or 1-(4-trimethylammoniumphenyl)-6-diphenyl-1,3,5-hexatriene p-toluenesulfonate (TMA-DPH; Invitrogen T204). Cells were washed 3 times with and resuspended in PBS at a density of 3×10^6 cells/ml. The anisotropic probes were added to a final concentration of […] and allowed to intercalate into the cell membrane for one hour in the dark. Anisotropic values were acquired via the software function of a PerkinElmer Life Sciences LS55 spectrofluorometer. Samples were excited at 358 nm, and emission was read at 430 nm, both with 10-nm slit widths. Temperature was maintained at 37° C. by means of the PerkinElmer LS55 Biokinetics accessory. Data were corrected for light scattering with an unlabeled sample of cells, and anisotropy was calculated according to the equation r=(IVV−GIVH)/(IVV+2GIVH), where r is the anisotropy value, IVV is the emission intensity acquired with the excitation- and emission-polarizing filters set vertically, G is the instrument correction factor, and IVH is the emission intensity acquired with the excitation-polarizing filter set vertically and the emission-polarizing filter set horizontally. All assays were conducted at 37° C. […]

Row | Molecule | permeabilization of homogenous symmetric saturated PC liposomes [1] | permeabilization of symmetric 15:0 PC or DPPC liposomes above Tm [1] | cell death of LNCaP cells (morphology, trypan blue exclusion) [2] | cell death of HEK cells (morphology, trypan blue exclusion) [3] | killing of BSF T. brucei (trypanocidal activity) [4] | binding to BSF T. brucei [5] | motility phenotype (hyperactivation, constriction) [6] | rigidity of the interfacial region of the plasma membrane (TMA-DPH) [7]
1 | CC[C@H](C)[C@H](NC(=O)[C@@H](NC(=O)[C@H](C)NC(=O)CNC(=O)[C@H](CC(C)C)NC(=O)[C@H](CC(=O)O)NC(=O)[C@@H](N)CO)C(C)C)C(=O)N[C@@H](CO)C(=O)N[C@@H](CC(C)C)C(=O)N[C@@H](CC(C)C)C(=O)N[C@@H](CC(C)C)C(=O)N[C@@H](Cc1c[nH]c2ccccc12)C(=O)NCC(=O)N[C@@H](CCCNC(=N)N)C(=O)N[C@@H](CCC(N)=O)C(=O)N[C@@H](CC(C)C)C(=O)N[C@@H](Cc1ccccc1)C(=O)N[C@@H](C)C(=O)O [SHP-1, SDLGAVISLLLWGRQLFA] (H-SDLGAVISLLLWGRQLFA-OH; N-terminus and C-terminus assumed) | not permeabilized | resulted in sensitivity to permeabilization | did not result in cell death | did not result in cell death | – | – | – | –
2 | FHQIWAALLYFYGIILNSIY (amino acid sequence of small hydrophobic peptide -3 (SHP-3)) [Small hydrophobic peptide 3, derived from an apolipoprotein] | – | – | – | – | no killing was seen | binding to BSF T. brucei | does cause initial hyperactivation of BSF T. b. brucei, however subsequent constriction of motility does not occur | increased the rigidity of the interfacial region of the plasma membrane
